Laboratory results published in patent US20250353891A1 (MEDIMMUNE LIMITED, priority 2022, published 2025).
Read-outs that look alike come from different tables or passages of the source. Starred links: 1 amine or outer side, 2 acyl side, 3 side chain; linkers in the order of their positions; H or OH if unused. Non-standard residues stand in square brackets, D forms with d. Residues, ends and D or L forms follow the SMILES beside them. Groups on a side chain read outwards from the residue. *: point of attachment. C18 diacid = O=C(O)CCCCCCCCCCCCCCCCC(=O)*; Dip = N[C@H](C(=O)O)C(c1ccccc1)c1ccccc1; γGlu = O=C(O)[C@H](CCC(=O)[*:2])N[*:1]; αMeF = C[C@](N)(Cc1ccccc1)C(=O)O; AEEA = NCCOCCOCC(=O)O; Aib = CC(C)(N)C(=O)O

Columns and labels:
[1] = target: human glucagon receptor (hGCGR) (Homo sapiens, UniProt P47871); assay: cAMP production (HTRF) in CHO cells expressing hGCGR; format: cell-based; set-up: expressed in transfected cells; details: geometric mean
Method in brief: (§1)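 Potency values represent EC50 from 4-parameter logistic curves of HTRF % Delta F signal. Receptor-expressing CHO cells (hGCGR 2×10^5 cells/mL, hGLP-1R 1×10^5 cells/mL) were exposed for 30 min at room temperature before two-step cAMP detection.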

[2] = target: human GLP-1 receptor (hGLP-1R) (Homo sapiens, UniProt P43220); assay: cAMP production (HTRF) in CHO cells expressing hGLP-1R; format: cell-based; set-up: expressed in transfected cells; details: for % Relative Potency Ratio: % GLP-1R activity relative to GLP-1 / % GlucR activity relative to glucagon
Method in brief: as §1

[3] = Table 7, peptides modified at position 20, cAMP in CHO hGCGR cells, read-out: hGluc-R EC50
[4] = Table 7, peptides modified at position 20, cAMP in CHO hGLP-1R cells, geometric mean, read-out: hGLP-1R EC50
[5] = cAMP, CHO cells, 0.1% BSA, read-out: hGluc-R EC50
[6] = cAMP, CHO cells, 0.1% BSA, geometric mean, read-out: hGLP-1R EC50
[7] = hGluc-R EC50 (pM), cAMP, CHO cells, 0.1% BSA

Chain of human glucagon receptor (hGCGR) (P47871 26-477): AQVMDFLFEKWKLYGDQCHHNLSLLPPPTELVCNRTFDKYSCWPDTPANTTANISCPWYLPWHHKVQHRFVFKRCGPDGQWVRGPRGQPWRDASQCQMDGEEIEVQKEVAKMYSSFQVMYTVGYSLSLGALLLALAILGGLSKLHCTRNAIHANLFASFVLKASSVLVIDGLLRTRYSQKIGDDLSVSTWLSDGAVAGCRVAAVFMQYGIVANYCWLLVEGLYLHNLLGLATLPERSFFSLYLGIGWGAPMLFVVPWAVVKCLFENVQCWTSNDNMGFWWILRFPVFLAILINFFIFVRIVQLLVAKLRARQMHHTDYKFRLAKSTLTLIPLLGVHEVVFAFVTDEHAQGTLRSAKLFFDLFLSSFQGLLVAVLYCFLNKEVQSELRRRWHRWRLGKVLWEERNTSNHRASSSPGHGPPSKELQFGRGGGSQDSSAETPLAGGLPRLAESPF
Chain of human GLP-1 receptor (hGLP-1R) (P43220 24-463): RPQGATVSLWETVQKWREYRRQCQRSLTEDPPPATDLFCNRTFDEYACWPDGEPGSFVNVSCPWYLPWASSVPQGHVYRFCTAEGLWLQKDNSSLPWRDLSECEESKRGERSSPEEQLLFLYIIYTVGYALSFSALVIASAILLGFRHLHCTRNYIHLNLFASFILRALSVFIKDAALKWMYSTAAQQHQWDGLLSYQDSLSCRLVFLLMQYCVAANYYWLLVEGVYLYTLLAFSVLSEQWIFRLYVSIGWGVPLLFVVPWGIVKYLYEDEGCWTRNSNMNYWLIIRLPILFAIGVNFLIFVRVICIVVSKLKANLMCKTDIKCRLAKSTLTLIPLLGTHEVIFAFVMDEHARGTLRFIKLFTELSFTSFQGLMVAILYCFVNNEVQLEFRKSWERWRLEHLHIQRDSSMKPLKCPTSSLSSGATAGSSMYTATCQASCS

| SMILES | EC50 [1, 3] [pM] | EC50 [2, 4] [pM] | % Relative Potency Ratio ([2]; Table 7) | also measured |
| --- | --- | --- | --- | --- |
| CC(C)C[C@H](NC(=O)[C@H](Cc1c[nH]c2ccccc12)NC(=O)[C@H](CCC(N)=O)NC(=O)[C@@H](NC(=O)[C@H](Cc1ccccc1)NC(=O)[C@H](CC(=O)O)NC(=O)[C@H](CCCCNC(=O)CC[C@H](NC(=O)CCCCCCCCCCCCCCCCC(=O)O)C(=O)O)NC(=O)[C@H](C)NC(=O)[C@H](CCCNC(=N)N)NC(=O)[C@H](CCCNC(=N)N)NC(=O)[C@H](CO)NC(=O)[C@H](CC(=O)O)NC(=O)[C@H](CC(C)C)NC(=O)[C@](C)(Cc1ccccc1)NC(=O)[C@H](CCCCN)NC(=O)[C@H](CO)NC(=O)[C@H](Cc1ccc(O)cc1)NC(=O)[C@H](CC(=O)O)NC(=O)[C@H](CO)NC(=O)[C@@H](NC(=O)[C@H](Cc1ccccc1)NC(=O)[C@@H](NC(=O)CNC(=O)[C@H](CCC(N)=O)NC(=O)C(C)(C)NC(=O)[C@@H](N)Cc1c[nH]cn1)[C@@H](C)O)[C@@H](C)O)C(C)C)C(=O)N[C@@H](CC(C)C)C(=O)NC(C)(C)C(=O)N[C@@H](CCC(=O)O)C(=O)O [Peptide 339] (H-H[Aib]QGTFTSDYSK[αMeF]LDSRRAK([γGlu-C18 diacid])DFVQWLL[Aib]E-OH; N-terminus assumed) | 70.3 | 312 | 0.4 | – |
| CC(C)C[C@H](NC(=O)[C@H](Cc1c[nH]c2ccccc12)NC(=O)[C@H](CCC(N)=O)NC(=O)[C@@H](NC(=O)[C@H](Cc1ccccc1)NC(=O)[C@H](CC(=O)O)NC(=O)[C@H](CCCCNC(=O)CC[C@H](NC(=O)CCCCCCCCCCCCCCCCC(=O)O)C(=O)O)NC(=O)[C@H](C)NC(=O)[C@H](CCCNC(=N)N)NC(=O)[C@H](CCCNC(=N)N)NC(=O)[C@H](CO)NC(=O)[C@H](CC(=O)O)NC(=O)[C@H](CC(C)C)NC(=O)[C@](C)(Cc1ccccc1)NC(=O)[C@H](CCCCN)NC(=O)[C@H](CO)NC(=O)[C@H](Cc1ccc(O)cc1)NC(=O)[C@H](CC(=O)O)NC(=O)[C@H](CO)NC(=O)[C@@H](NC(=O)[C@H](Cc1ccccc1)NC(=O)[C@@H](NC(=O)CNC(=O)[C@H](CCC(N)=O)NC(=O)C(C)(C)NC(=O)[C@@H](N)Cc1c[nH]cn1)[C@@H](C)O)[C@@H](C)O)C(C)C)C(=O)N[C@@H](CC(C)C)C(=O)NC(C)(C)C(=O)N[C@H](C(=O)N[C@@H](CCC(=O)O)C(=O)O)[C@@H](C)O [Peptide 340] | 94.7 | 312 | 0.6 | – |
| CC(C)C[C@H](NC(=O)[C@H](Cc1c[nH]c2ccccc12)NC(=O)[C@H](CCC(N)=O)NC(=O)[C@@H](NC(=O)[C@H](Cc1ccccc1)NC(=O)[C@H](CC(=O)O)NC(=O)[C@H](CCCCNC(=O)CC[C@H](NC(=O)CCCCCCCCCCCCCCCCC(=O)O)C(=O)O)NC(=O)[C@H](C)NC(=O)[C@H](CCCNC(=N)N)NC(=O)[C@H](CCCNC(=N)N)NC(=O)[C@H](CO)NC(=O)[C@H](CC(=O)O)NC(=O)[C@H](CC(C)C)NC(=O)[C@](C)(Cc1ccccc1)NC(=O)[C@H](CCCCN)NC(=O)[C@H](CO)NC(=O)[C@H](Cc1ccc(O)cc1)NC(=O)[C@H](CC(=O)O)NC(=O)[C@H](CO)NC(=O)[C@@H](NC(=O)[C@H](Cc1ccccc1)NC(=O)[C@@H](NC(=O)CNC(=O)[C@H](CCC(N)=O)NC(=O)C(C)(C)NC(=O)[C@@H](N)Cc1c[nH]cn1)[C@@H](C)O)[C@@H](C)O)C(C)C)C(=O)N[C@@H](CC(C)C)C(=O)N[C@@H](CCC(=O)O)C(=O)NC(C)(C)C(=O)N[C@H](C(=O)O)[C@@H](C)O [Peptide 341] | 72.8 | 363 | 0.4 | – |
| CC[C@H](C)[C@H](NC(=O)[C@H](Cc1c[nH]c2ccccc12)NC(=O)[C@H](CCC(N)=O)NC(=O)[C@@H](NC(=O)[C@H](Cc1ccccc1)NC(=O)[C@H](CC(=O)O)NC(=O)[C@H](CCCCNC(=O)CC[C@H](NC(=O)CCCCCCCCCCCCCCCCC(=O)O)C(=O)O)NC(=O)[C@H](C)NC(=O)[C@H](C)NC(=O)[C@H](CCCNC(=N)N)NC(=O)[C@H](CO)NC(=O)[C@H](CC(=O)O)NC(=O)[C@H](CC(C)C)NC(=O)[C@](C)(Cc1ccccc1)NC(=O)[C@H](CCCCN)NC(=O)[C@H](CO)NC(=O)[C@@H](NC(=O)[C@H](CC(=O)O)NC(=O)[C@H](CO)NC(=O)[C@@H](NC(=O)[C@H](Cc1ccccc1)NC(=O)[C@@H](NC(=O)CNC(=O)[C@H](CCC(N)=O)NC(=O)C(C)(C)NC(=O)[C@@H](N)Cc1c[nH]cn1)[C@@H](C)O)[C@@H](C)O)C(C)C)C(C)C)C(=O)N[C@@H](C)C(=O)N[C@@H](CC(N)=O)C(=O)N[C@H](C(=O)O)[C@@H](C)O [Peptide 342] | 4830 | 220 | 43.4 | – |
| CC[C@H](C)[C@H](NC(=O)[C@H](Cc1c[nH]c2ccccc12)NC(=O)[C@H](CCCCNC(=O)CC[C@H](NC(=O)CCCCCCCCCCCCCCCCC(=O)O)C(=O)O)NC(=O)[C@@H](NC(=O)[C@H](Cc1ccccc1)NC(=O)[C@H](CC(=O)O)NC(=O)[C@H](CCC(N)=O)NC(=O)[C@H](C)NC(=O)[C@H](C)NC(=O)[C@H](CCCNC(=N)N)NC(=O)[C@H](CO)NC(=O)[C@H](CC(=O)O)NC(=O)[C@H](CC(C)C)NC(=O)[C@@H](NC(=O)[C@H](CCCCN)NC(=O)[C@H](CO)NC(=O)[C@@H](NC(=O)[C@H](CC(=O)O)NC(=O)[C@H](CO)NC(=O)[C@@H](NC(=O)[C@H](Cc1ccccc1)NC(=O)[C@H](CO)NC(=O)CNC(=O)[C@H](CCC(N)=O)NC(=O)C(C)(C)NC(=O)[C@@H](N)Cc1c[nH]cn1)[C@@H](C)O)C(C)C)C(c1ccccc1)c1ccccc1)C(C)C)C(=O)N[C@@H](C)C(=O)N[C@@H](CC(N)=O)C(=O)N[C@H](C(N)=O)[C@@H](C)O [Peptide 343] (H-H[Aib]QGSFTSDVSK[Dip]LDSRAAQDFVK([γGlu-C18 diacid])WIANT-NH2; N-terminus assumed) | – | – | – | EC50 [1, 5]: 126 pM; % Relative Potency Ratio [2]: 4.2; EC50 [2, 6]: 58.6 pM |
| CC[C@H](C)[C@H](NC(=O)C(C)(C)NC(=O)[C@H](CCCCNC(=O)COCCOCCNC(=O)COCCOCCNC(=O)CC[C@H](NC(=O)CCCCCCCCCCCCCCCCC(=O)O)C(=O)O)NC(=O)[C@@H](NC(=O)[C@](C)(Cc1ccccc1)NC(=O)[C@H](CC(=O)O)NC(=O)[C@H](CCC(N)=O)NC(=O)[C@H](C)NC(=O)[C@H](C)NC(=O)[C@H](CCCNC(=N)N)NC(=O)[C@H](CO)NC(=O)[C@H](CC(=O)O)NC(=O)[C@H](CC(C)C)NC(=O)C(C)(C)NC(=O)[C@H](CCCCN)NC(=O)[C@H](CO)NC(=O)[C@@H](NC(=O)[C@H](CC(=O)O)NC(=O)[C@H](CO)NC(=O)[C@@H](NC(=O)[C@](C)(Cc1ccccc1)NC(=O)[C@H](CO)NC(=O)CNC(=O)[C@H](CCC(N)=O)NC(=O)[C@H](CO)NC(=O)[C@@H](N)Cc1c[nH]cn1)[C@@H](C)O)C(C)C)C(C)C)C(=O)N[C@@H](C)C(=O)N[C@@H](CC(N)=O)C(N)=O [Peptide 344] (H-HSQGS[αMeF]TSDVSK[Aib]LDSRAAQD[αMeF]VK([AEEA-AEEA-γGlu-C18 diacid])[Aib]IAN-NH2; N-terminus assumed) | – | – | – | EC50 [1, 5]: > 26900 pM; EC50 [2, 6]: 135 pM |
| CC[C@H](C)[C@H](NC(=O)[C@H](Cc1c[nH]c2ccccc12)NC(=O)[C@H](CCCCNC(=O)CC[C@H](NC(=O)CCCCCCCCCCCCCCCCCCC(=O)O)C(=O)O)NC(=O)[C@@H](NC(=O)[C@H](Cc1ccccc1)NC(=O)[C@H](CC(=O)O)NC(=O)[C@H](CCC(N)=O)NC(=O)[C@H](C)NC(=O)[C@H](C)NC(=O)[C@H](CCC(N)=O)NC(=O)[C@H](CO)NC(=O)[C@H](CC(=O)O)NC(=O)[C@H](CC(C)C)NC(=O)[C@](C)(Cc1ccccc1)NC(=O)[C@H](CCCCN)NC(=O)[C@H](CO)NC(=O)[C@@H](NC(=O)[C@H](CC(=O)O)NC(=O)[C@H](CO)NC(=O)[C@@H](NC(=O)[C@H](Cc1ccccc1)NC(=O)[C@@H](NC(=O)CNC(=O)[C@H](Cc1c[nH]cn1)NC(=O)C(C)(C)NC(=O)[C@@H](N)Cc1c[nH]cn1)[C@@H](C)O)[C@@H](C)O)C(C)C)C(C)C)C(=O)N[C@@H](C)C(=O)N[C@@H](CC(N)=O)C(=O)N[C@H](C(N)=O)[C@@H](C)O [Peptide 347] | – | – | – | EC50 [1, 7]: 597 pM; % Relative Potency Ratio [2]: 0.2; EC50 ([2]; hGLP-1R EC50 (pM)): 4970 pM |
| CC[C@H](C)[C@H](NC(=O)[C@H](Cc1c[nH]c2ccccc12)NC(=O)[C@H](CCCCNC(=O)COCCOCCNC(=O)COCCOCCNC(=O)CC[C@H](NC(=O)CCCCCCCCCCCCCCCCC(=O)O)C(=O)O)NC(=O)[C@@H](NC(=O)[C@H](Cc1ccccc1)NC(=O)[C@H](CC(=O)O)NC(=O)[C@H](CCC(N)=O)NC(=O)[C@H](C)NC(=O)[C@H](C)NC(=O)[C@H](CCC(N)=O)NC(=O)[C@H](CO)NC(=O)[C@H](CC(=O)O)NC(=O)[C@H](CC(C)C)NC(=O)[C@](C)(Cc1ccccc1)NC(=O)[C@H](CCCCN)NC(=O)[C@H](CO)NC(=O)[C@@H](NC(=O)[C@H](CC(=O)O)NC(=O)[C@H](CO)NC(=O)[C@@H](NC(=O)[C@](C)(Cc1ccccc1)NC(=O)[C@H](CO)NC(=O)CNC(=O)[C@H](CCC(N)=O)NC(=O)C(C)(C)NC(=O)[C@@H](N)Cc1c[nH]cn1)[C@@H](C)O)C(C)C)C(C)C)C(=O)N[C@@H](C)C(=O)N[C@@H](CC(N)=O)C(=O)N[C@H](C(N)=O)[C@@H](C)O [Peptide 348] (H-H[Aib]QGS[αMeF]TSDVSK[αMeF]LDSQAAQDFVK([AEEA-AEEA-γGlu-C18 diacid])WIANT-NH2) | – | – | – | EC50 [1, 7]: 4110 pM; EC50 ([2]; hGLP-1R EC50 (pM)): 70.1 pM |
